What was measured:
Type in all cases: functional
Mus musculus [1] = species on record: Mus musculus; test: The compound was tested for activity to decrease fighting in mouse
Mus musculus [2] = species on record: Mus musculus; test: The compound was tested for analgesic activity using writhing (W) test in mouse
Rattus norvegicus [3] = species on record: Rattus norvegicus; test: The compound was tested for analgesic activity using (RTF) tail-flick test in rat
Rattus norvegicus [4] = test: The compound was tested for decreasing motor activity in rat at a dose of 2 mg/Kg
Rattus norvegicus [5] = test: The compound was tested for decreasing motor activity in rat. at a dose of 5 mg/Kg
Rattus norvegicus [6] = test: The compound was tested for methamphetamine antagonism in rat at a dose of 1 mg/Kg
Rattus norvegicus [7] = test: The compound was tested for methamphetamine antagonism in rat at a dose of 2 mg/Kg
Rattus norvegicus [8] = test: The compound was tested for serotonin antagonism in rat at a dose of 1 mg/Kg
Rattus norvegicus [9] = test: The compound was tested for serotonin antagonism in rat at a dose of 2 mg/Kg
Rattus norvegicus [10] = test: The compound was tested for hyperexcitability in rat at a dose of 20 mg/Kg
Rattus norvegicus [11] = test: The compound was tested for hyperexcitability in rat at a dose of 5 mg/Kg
Rattus norvegicus [12] = test: The compound was tested for hyperexcitability in rat at a dose of 80 mg/Kg

## CC(CCCc1ccc(F)cc1)c1cc(O)c2c(c1)OC(C)(C)C1=C2CN(CC(=O)NC(N)=O)CC1 (configuration not stated)
Mus musculus [1]
  ED50: 2 mg/kg
Mus musculus [2]
  ED50: 0.7 mg/kg
Rattus norvegicus [3]
  ED50: 1.6 mg/kg
Rattus norvegicus [4]
  Decrease in activity: 88%
Rattus norvegicus [5]
  Decrease in activity: 55%
Rattus norvegicus [6]
  Decrease in activity: 64%
Rattus norvegicus [7]
  Decrease in activity: 75%
Rattus norvegicus [8]
  Decrease in activity: 50%
Rattus norvegicus [9]
  Decrease in activity: 72%
Rattus norvegicus [10]
  Possible response: 90%
Rattus norvegicus [11]
  Possible response: 46%
Rattus norvegicus [12]
  Possible response: 100%
